Results as given in ChEMBL document CHEMBL1125481, “N-[4-[[(3,4-dihydro-4-oxo-1,2,3-benzotriazin-6-yl)methyl]amino]benzoyl]-L-glutamic acid, a novel A-ring analogue of 2-desamino-5,8-dideazafolic acid” (J Med Chem, 1992).
One block for each molecule: values may come before it.

Tests used:
[1] = test system: L1210; assay: Growth inhibitory activity on L1210 cell culture in the presence of 5.6 uM thymidine(dThd); format: functional, cell-based; conditions: Mus musculus
[2] = test system: L1210; assay: Growth inhibitory activity on mouse L1210 cell culture; format: functional, cell-based
[3] = test system: L1210; assay: Growth inhibitory activity on L1210 cell culture in the presence of 32 uM hypoxanthine (Hx); format: functional, cell-based; conditions: Mus musculus
[4] = molecular target: Thymidylate synthase (Mus musculus, UniProt P07607); assay: Compound was tested for the inhibition of recombinant mouse thymidylate synthase, competitive with 5,10-methylenetetrahydrofolate as variable substrate
Chain of Thymidylate synthase (P07607 whole entry): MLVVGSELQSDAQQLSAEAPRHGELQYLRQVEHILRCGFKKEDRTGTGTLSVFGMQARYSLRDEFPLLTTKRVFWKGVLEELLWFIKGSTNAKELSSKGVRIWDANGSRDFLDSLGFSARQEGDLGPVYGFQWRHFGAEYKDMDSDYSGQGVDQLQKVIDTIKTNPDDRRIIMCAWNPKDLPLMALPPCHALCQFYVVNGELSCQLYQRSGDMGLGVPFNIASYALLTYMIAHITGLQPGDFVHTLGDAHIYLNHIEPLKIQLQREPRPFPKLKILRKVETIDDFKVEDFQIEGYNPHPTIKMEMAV

[5] = molecular target: Thymidylate synthase (Mus musculus) (UniProt P07607); assay: Binding affinity towards thymidylate synthase (TS)
Chain of Thymidylate synthase (Mus musculus) (P07607 whole entry, looked up): as the sequence (P07607 whole entry) above

[6] = substrate: Nc1nc(O)c2cc(CNc3ccc(C(=O)NC(CCC(=O)O)C(=O)O)cc3)ccc2n1; assay: (§1) Kinetic characteristic of compound for mouse liver FPGS(in vitro)
[7] = substrate: O=C(O)CCC(NC(=O)c1ccc(NCc2ccc3ncnc(O)c3c2)cc1)C(=O)O; assay: as §1
[8] = substrate: O=C(O)CCC(NC(=O)c1ccc(NCc2ccc3nnnc(O)c3c2)cc1)C(=O)O

- IC50 [1]: 890 nM
- IC50 [2]: 520 nM
- IC50 [3]: 970 nM
- Ki [4]: 2300 nM
- Ki [5]: 2300 nM
Molecule: O=C(O)CCC(NC(=O)c1ccc(NCc2ccc3nnnc(O)c3c2)cc1)C(=O)O (stereo not given)

- IC50 [2]: 2700 nM
Molecule: Nc1nc(O)c2cc(CNc3ccc(C(=O)NC(CCC(=O)O)C(=O)O)cc3)ccc2n1 (stereo not given) [DIDEAZAFOLATE]

- IC50 [2]: 430 nM
Molecule: O=C(O)CCC(NC(=O)c1ccc(NCc2ccc3ncnc(O)c3c2)cc1)C(=O)O (stereo not given)

B1: Folylpolyglutamate synthase, mitochondrial (Mus musculus), P48760 (protein)
chain: MSWARSRLCSTLSLAAVSARGATTEGAARRGMSAWPAPQEPGMEYQDAVRTLNTLQTNASYLEQVKRQRSDPQAQLEAMEMYLARSGLQVEDLNRLNIIHVTGTKGKGSTCAFTERILRNYGLKTGFFSSPHMVQVRERIRINGKPISPELFTKHFWCLYNQLEEFKDDSHVSMPSYFRFLTLMAFHVFLQEKVDLAVVEVGIGGAFDCTNIIRKPVVCGVSSLGIDHTSLLGDTVEKIAWQKGGIFKPGVPAFTVVQPEGPLAVLRDRAQQIGCPLYLCPPLEALEEVGLPLSLGLEGAHQRSNAALALQLAHCWLERQDHQDIQELKVSRPSIRWQLPLAPVFRPTPHMRRGLRDTVWPGRTQILQRGPLTWYLDGAHTTSSVQACVHWYRQSLERSKRTDGGSEVHILLFNSTGDRDSAALLKLLQPCQFDYAVFCPNVTEVSSIGNADQQNFTVTLDQVLLRCLQHQQHWNGLAEKQASSNLWSSCGPDPAGPGSLLLAPHPPQPTRTSSLVFSCISHALLWISQGRDPIFQPQSLPRNLLNHPTANSGASILREAAAIHVLVTGSLHLVGGVLKLLDPSMSQ
- Km [6]: 6.4 µM
- Km [7]: 4.8 µM
- Km [8]: 28 µM
